In ChEMBL document CHEMBL5727378, “Benzenesulfonamide derivatives as inverse agonists of retinoid-related orphan receptor gamma (RORγ(T))” (2019):

Target: T1, Nuclear receptor ROR-gamma (Homo sapiens, UniProt P51449)
T1 sequence (P51449 whole entry): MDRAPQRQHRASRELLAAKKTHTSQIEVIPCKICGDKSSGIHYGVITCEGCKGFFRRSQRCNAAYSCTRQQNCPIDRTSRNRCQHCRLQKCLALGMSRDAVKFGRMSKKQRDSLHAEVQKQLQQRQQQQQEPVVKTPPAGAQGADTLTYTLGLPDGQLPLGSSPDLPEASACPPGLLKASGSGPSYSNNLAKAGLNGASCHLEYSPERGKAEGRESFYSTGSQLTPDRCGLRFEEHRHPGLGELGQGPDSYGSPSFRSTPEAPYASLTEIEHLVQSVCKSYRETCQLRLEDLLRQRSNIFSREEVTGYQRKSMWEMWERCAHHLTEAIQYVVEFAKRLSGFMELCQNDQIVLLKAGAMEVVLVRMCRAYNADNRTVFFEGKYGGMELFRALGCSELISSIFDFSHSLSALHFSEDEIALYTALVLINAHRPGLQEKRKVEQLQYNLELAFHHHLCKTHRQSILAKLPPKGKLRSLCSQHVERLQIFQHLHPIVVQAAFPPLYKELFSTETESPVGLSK
Experiment: GAL4-RORgamma Transactivation: The RORγ transactivation model was developed from the line HG5LN, which is a HeLa line that stably expresses a luciferase reporter gene controlled by a pentamer of the GAL4 recognition domain of yeast and of a β-globin promoter. The HG5LN line was stably transfected by the DNA-binding domain (DBD) of GAL4 fused to the ROR gamma ligand-binding domain (LBD). Molecules that inhibit the ROR gamma constitutive activity reduce the luciferase expression, thus leading to a reduction in the emitted luminescence.The cells are seeded in 384-well plates (5000 cells in 45 μL/well of culture medium containing 10% fetal calf serum) and incubated for 4 hours at 37° C., 5% CO2. 5 μL of the test molecules (compounds described in the tables described above) are then added to each well and the plates are incubated for 18 hours at a temperature of 37° C. under 5% of CO2. 20 μL of luciferase substrate (Promega) are added to each well and the luminescence emitted is read by a microplate reader.The luminescence units (“RLU”) are normalized by positive controls (“POS” containing a saturated concentration of benzenesulfonamide, N-(2,2,2-trifluoroethyl)-N-[4-[2,2,2-trifluoro-1-hydroxy-1-(trifluoromethyl)ethyl]phenyl]) and negative controls (“NEG” containing DMSO): % inhibition=((RLU−NEG)*100)/(POS−NEG). The IC50 values are calculated from a 4-parameter logistic model using the XLFit software (IDBS).

Row | Compound | IC50 [µM]
1 | CCc1ccc(N(CC(C)C)S(=O)(=O)c2ccc3c(c2)N(CC2CCOCC2)CCS3(=N)=O)cc1 (stereo not drawn) | > 1
2 | CCc1ccc(N(CC(C)C)S(=O)(=O)c2ccc(NC3CCNC(=O)C3)c(S(C)(=N)=O)c2)cc1 (stereo not drawn) | > 1
3 | CCc1ccc(N(CC(C)C)S(=O)(=O)c2ccc(OCC3CCSCC3)c(S(C)(=N)=O)c2)cc1 (stereo not drawn) | < 0.1
